Reference: ChEMBL document CHEMBL1129998, “Pharmacological options in the treatment of benign prostatic hyperplasia” (J Med Chem, 1997)
pIC50, pKi: −log10 of the molar value.

Columns and labels:
[1] = target: T1, 3-oxo-5-alpha-steroid 4-dehydrogenase 2 (Homo sapiens, UniProt P31213); assay: Inhibition of human 5-alpha reductase 2 isozyme.
T1 sequence (P31213 whole entry): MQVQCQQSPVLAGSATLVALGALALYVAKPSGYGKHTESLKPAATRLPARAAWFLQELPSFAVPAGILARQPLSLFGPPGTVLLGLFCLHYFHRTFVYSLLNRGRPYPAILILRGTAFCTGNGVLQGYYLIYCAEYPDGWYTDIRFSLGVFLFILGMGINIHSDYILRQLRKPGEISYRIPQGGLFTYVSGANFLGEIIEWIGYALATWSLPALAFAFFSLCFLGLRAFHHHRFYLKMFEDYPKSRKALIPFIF

[2] = target: T2, 3-oxo-5-alpha-steroid 4-dehydrogenase 1 (Homo sapiens, UniProt P18405); assay: Inhibitory concentration was tested on human 5-alpha reductase 1 isozyme
T2 sequence (P18405 whole entry): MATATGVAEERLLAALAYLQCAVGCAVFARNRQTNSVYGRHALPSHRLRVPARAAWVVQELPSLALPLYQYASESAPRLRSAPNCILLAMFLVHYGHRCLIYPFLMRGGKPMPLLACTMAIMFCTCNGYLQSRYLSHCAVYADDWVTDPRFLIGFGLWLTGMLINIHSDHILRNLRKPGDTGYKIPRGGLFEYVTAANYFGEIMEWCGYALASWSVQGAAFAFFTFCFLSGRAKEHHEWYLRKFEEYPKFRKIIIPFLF

[3] = target: T3, Alpha-1A adrenergic receptor (Homo sapiens, UniProt P35348); assay: Binding affinity was tested on human Alpha-1A adrenergic receptor
T3 sequence (P35348 whole entry): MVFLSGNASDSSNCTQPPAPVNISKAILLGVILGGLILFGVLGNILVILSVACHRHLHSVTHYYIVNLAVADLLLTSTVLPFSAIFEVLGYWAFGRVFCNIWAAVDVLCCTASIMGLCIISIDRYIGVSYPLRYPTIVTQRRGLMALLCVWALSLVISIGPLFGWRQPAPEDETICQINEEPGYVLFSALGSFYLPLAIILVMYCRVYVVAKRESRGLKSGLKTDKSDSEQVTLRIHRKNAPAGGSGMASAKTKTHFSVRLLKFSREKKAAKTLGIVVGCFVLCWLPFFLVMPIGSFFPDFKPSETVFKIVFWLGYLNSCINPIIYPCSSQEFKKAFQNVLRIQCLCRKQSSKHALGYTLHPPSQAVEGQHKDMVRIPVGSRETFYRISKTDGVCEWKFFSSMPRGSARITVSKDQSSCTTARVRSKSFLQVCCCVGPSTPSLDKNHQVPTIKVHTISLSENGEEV

[4] = target: T4, Alpha-1B adrenergic receptor (Homo sapiens, UniProt P35368); assay: Binding affinity was tested on human Alpha-1B adrenergic receptor
T4 sequence (P35368 whole entry): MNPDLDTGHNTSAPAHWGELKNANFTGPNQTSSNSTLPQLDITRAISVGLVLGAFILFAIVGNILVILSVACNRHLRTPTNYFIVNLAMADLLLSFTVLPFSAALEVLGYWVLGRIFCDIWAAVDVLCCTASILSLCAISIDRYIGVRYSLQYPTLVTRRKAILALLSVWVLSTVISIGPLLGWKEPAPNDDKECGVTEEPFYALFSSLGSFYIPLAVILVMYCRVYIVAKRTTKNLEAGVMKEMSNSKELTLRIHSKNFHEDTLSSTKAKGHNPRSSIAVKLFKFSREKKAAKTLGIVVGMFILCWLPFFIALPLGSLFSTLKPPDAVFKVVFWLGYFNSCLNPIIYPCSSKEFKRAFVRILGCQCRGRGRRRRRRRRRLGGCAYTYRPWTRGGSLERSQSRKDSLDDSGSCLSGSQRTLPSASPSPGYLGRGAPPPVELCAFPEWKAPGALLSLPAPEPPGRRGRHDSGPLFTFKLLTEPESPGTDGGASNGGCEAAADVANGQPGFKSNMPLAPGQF

[5] = target: T5, Alpha-1D adrenergic receptor (Homo sapiens, UniProt P25100); assay: Binding affinity was tested on human Alpha-1D adrenergic receptor
T5 sequence (P25100 whole entry): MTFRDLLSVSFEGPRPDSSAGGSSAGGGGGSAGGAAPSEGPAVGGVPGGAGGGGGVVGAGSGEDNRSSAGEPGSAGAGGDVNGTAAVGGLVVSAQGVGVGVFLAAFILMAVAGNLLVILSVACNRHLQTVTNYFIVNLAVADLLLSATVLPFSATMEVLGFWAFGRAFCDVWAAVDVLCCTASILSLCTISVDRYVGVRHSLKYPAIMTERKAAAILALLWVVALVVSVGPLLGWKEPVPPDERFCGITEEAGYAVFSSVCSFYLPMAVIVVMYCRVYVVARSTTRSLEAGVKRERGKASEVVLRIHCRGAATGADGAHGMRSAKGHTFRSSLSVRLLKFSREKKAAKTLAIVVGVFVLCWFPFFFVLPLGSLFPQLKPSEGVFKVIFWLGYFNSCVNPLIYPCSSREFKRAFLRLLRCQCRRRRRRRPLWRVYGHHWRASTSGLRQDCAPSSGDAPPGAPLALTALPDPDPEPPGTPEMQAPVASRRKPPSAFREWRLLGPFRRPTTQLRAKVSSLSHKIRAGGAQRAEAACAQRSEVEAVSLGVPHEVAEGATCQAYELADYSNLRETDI

[6] = Apparent binding affinity on human 5-alpha reductase isozyme
[7] = target: T6, Steroid 5-alpha-reductase (Rattus norvegicus, UniProt P24008+P31214); assay: Inhibition of rat 5-alpha reductase isozyme.; format: protein assay
T6 sequence (P24008 whole entry): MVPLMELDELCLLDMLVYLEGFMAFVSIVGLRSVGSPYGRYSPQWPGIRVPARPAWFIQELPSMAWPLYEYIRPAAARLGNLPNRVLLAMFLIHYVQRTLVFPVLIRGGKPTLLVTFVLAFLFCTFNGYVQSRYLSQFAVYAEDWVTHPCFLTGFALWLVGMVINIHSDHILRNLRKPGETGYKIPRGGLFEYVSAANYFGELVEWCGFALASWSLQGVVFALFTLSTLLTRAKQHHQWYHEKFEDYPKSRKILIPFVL
T6 sequence (P31214 whole entry): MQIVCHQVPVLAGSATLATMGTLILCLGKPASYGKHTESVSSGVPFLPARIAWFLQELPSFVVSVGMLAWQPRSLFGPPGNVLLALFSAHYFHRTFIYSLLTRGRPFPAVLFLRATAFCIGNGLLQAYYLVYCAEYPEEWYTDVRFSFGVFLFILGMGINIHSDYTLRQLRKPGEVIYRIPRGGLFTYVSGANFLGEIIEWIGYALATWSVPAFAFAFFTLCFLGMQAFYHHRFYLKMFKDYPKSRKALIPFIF

SMILES | pIC50 [1] | pIC50 [2] | pKi [4] | other results
C[C@]12C=CC(=O)NC1CCC1C2CC[C@@]2(C)C1CC[C@@H]2C(=O)N(c1ccccc1)c1ccccc1 (stereo not given in full) | 7.60 | < 6.00 |  | 
COc1cccc(OC)c1OCCNCC1COc2ccccc2O1 (stereo not given) |  |  |  | pKi [3]: 9.80
COc1ccccc1N1CCN(CCN2C(=O)CC3(CCCC3)CC2=O)CC1 |  |  | 6.20 | 
C[C@]12C=CC(=O)NC1CCC1C2CC[C@@]2(C)C1CC[C@@H]2C(=O)Nc1ccccc1 (stereo not given in full) | > 10.00 | 7.70 |  | 
CCOc1ccccc1OCCN[C@H](C)Cc1ccc(OC)c(S(N)(=O)=O)c1 (stereo in doubt; form 3) [TAMSULOSIN] |  |  | 7.00 | pKi [5]: 8.10
CC(C)N(C(=O)[C@H]1CCC2C3CC=C4C=C([N+](=O)[O-])CC[C@]4(C)C3CC[C@@]21C)C(C)C (stereo not given in full) |  |  |  | pKi [6]: 6.23
CCC1=C(C(=O)NCCCN2CCC(c3ccccc3)(c3ccccc3)CC2)C(c2ccc([N+](=O)[O-])cc2)/C(=C(\O)OC)C(C)=N1 (stereo not given) |  |  | 6.83 | pKi [5]: 6.69; pKi [3]: 9.18
CCC1=NC(CC)=C(C(=O)NCCCN2CCC(c3ccccc3)(c3ccccc3)CC2)C(c2ccc([N+](=O)[O-])cc2)/C1=C(\O)OC (stereo not given) |  |  | 6.55 | pKi [5]: 6.35; pKi [3]: 8.90
CN(C(=O)[C@H]1CCC2C3CCC4NC(=O)C=C[C@]4(C)C3CC[C@@]21C)c1ccccc1 (stereo not given in full) | 9.70 | 6.46 |  | 
CC(C)N(C(=O)[C@H]1CCC2C3CC=C4C=C(C(=O)O)CC[C@]4(C)C3CC[C@@]21C)C(C)C (stereo not given in full) |  |  |  | pKi [6]: 8.15
CC(C)N(C(=O)[C@H]1CCC2C3CCC4C=C([N+](=O)[O-])CC[C@]4(C)C3CC[C@@]21C)C(C)C (stereo not given in full) |  |  |  | pKi [6]: 7.30
CC(C)Cc1ccc([C@@H](C)Oc2ccc(C(=O)c3cn(CCCC(=O)O)c4ccccc34)cc2)cc1 | 7.16 | 6.24 |  | IC50 [7]: 30 nM
C[C@]12C=CC(=O)NC1CCC1C2CC[C@@]2(C)C1CC[C@@H]2C(=O)Nc1cccc2ccccc12 (stereo not given in full) | 9.70 | 8.09 |  | 
Cc1c(C(=O)c2ccc3c(c2)OC(c2ccc(Cl)cc2)(c2ccc(Cl)cc2)O3)c2ccccc2n1CCCC(=O)O | 5.20 | 8.00 |  | IC50 [7]: 588 nM
CCN(CC)C(=O)[C@H]1CC[C@H]2[C@@H]3CC[C@H]4N(C)C(=O)CC[C@]4(C)[C@H]3CC[C@]12C | 8.72 | 8.77 |  | IC50 [7]: 9.5 nM
COc1ccc(CCNCC2CCc3ccccc3C2)cc1 (stereo not given) |  |  | 7.40 | pKi [5]: 6.80; pKi [3]: 8.40
CN1C(=O)CC[C@]2(C)c3ccc(Cl)cc3CCC12 (stereo not given in full) |  | 7.77 |  | 
CCCc1ccc(OC(C)c2ccc(C(=O)c3cn(CCCC(=O)O)c4ccccc34)cc2)cc1 (stereo not given) | 8.00 | 8.10 |  | IC50 [7]: 5 nM
C[C@H](Cc1cc2c(c(C(N)=O)c1)N(CCCO)CC2)NCCOc1ccccc1OCC(F)(F)F [SILODOSIN] |  |  | 7.70 | pKi [5]: 8.70; pKi [3]: 10.40
